Where two headings read alike, the source gives them in different places.
Key:
[1] = target: recombinant human delta opioid receptor (Homo sapiens (Human), UniProt P41143); details: Ki relative to nalbuphine
Experimental: (§1) Using conventional receptor binding assay techniques, several molecules were assayed to determine binding activity at kappa, mu and delta opioid subtypes of opioid receptors.
(§2) Cells were plated in 24 well plates at a density of 0.2-0.3*10^6 cells/well and washed with assay buffer containing 50 mM Tris.HCl and 5 mM MgCl2 (pH 7.4). Competition binding assays were conducted in whole cells incubated with increasing concentrations of test compounds in the presence of appropriate concentration of radioligand. 0.5 nM ^3H Naloxone, 0.5 nM ^3H Diprenorphine and 0.5 nM ^3H DPDPE were used as the competing radioligands for mu, kappa and delta receptors respectively. Incubations were carried out for two hours at room temperature using triplicate wells at each concentration. At the end of the incubation, cells were washed with 50 mM Tris HCl (pH 8.0), solubilized with NaOH and bound radioactivity was measured using a scintillation counter.
(§3) Specific binding is determined by subtraction of the cpm bound in the presence of 50-100× excess of cold ligand. Binding data assays were analyzed using GraphPad Prism 4.0 and IC50 is generated by non-linear regression from dose-response curves.

[2] = target: T1, recombinant human mu opioid receptor (Homo sapiens (Human), UniProt P35372); type: binding
Experimental: as §1, §2, §3

[3] = Oral pharmacokinetics in Sprague-Dawley rats; details: male, rat, plasma, 5 mg/kg
in vivo [4] = details: male, Sprague-Dawley, rat, plasma, iv, 1 mg/kg
in vivo [5] = details: male, Sprague-Dawley, rat, plasma, 5 mg/kg
[6] = target: cloned human mu opioid receptor (Homo sapiens (Human), UniProt P35372); test: cell-based
Experimental: (§4) The efficacy of the various PEG-opioid conjugates was measured by their ability to inhibit cAMP formation following receptor activation. Studies were conducted in CHO cells heterologously expressing the cloned human mu, kappa or delta opioid receptors. cAMP was measured using a cAMP HiRange homogenous time-resolved fluorescence assay (HTRF Assay), that is based on a competitive immunoassay principle (Cisbio, Cat.#62AM6PEC).
(§5) Briefly, suspensions of cells expressing either the mu, kappa or delta opioid receptors were prepared in buffer containing 0.5 mM isobutyl-methyl xanthine (IBMX). […] EC50 values were calculated for each compound from a sigmoidal dose-response plot of concentrations versus maximum response. To determine if the compounds behaved as full or partial agonists in the system, the maximal response at the highest tested concentrations of compounds were compared to that produced by a known full agonist.

[7] = Intravenous pharmacokinetics in Sprague-Dawley rats
[8] = target: T1, recombinant human mu opioid receptor; type: binding; remark: listed apart in the source
Experimental: (§6) Radioligand displacement was measured using scintillation proximity assays (SPA).
(§7) Briefly, serial dilutions of the test compounds were placed in a 96-well plate to which were added SPA beads, membrane and radioligand. The assay conditions for each opioid receptor subtype are described in Table 10 below. The plates were incubated for 8 hours-overnight at room temperature, spun at 1000 rpm to pellet the SPA beads, and radioactivity was measured using the TopCount® microplate Scintillation counter. Specific binding at each concentration of test compound was calculated by subtracting the non-specific binding measured in the presence of excess cold ligand. IC50 values were obtained by non-linear regression of specific binding versus concentration curves and Ki values were calculated using Kd values that were experimentally pre-determined for each lot of membrane preparations.

CD-1 male mice = test: Phenylquinone writhing analgesic assay; type: in vivo, mouse; details: pretreatment 30 min before PQ
Experimental: Mice were treated according to standard protocols. Mice were given a single “pretreatment” dose of a compound lacking covalent attachment of a water-soluble, non-peptidic oligomer (i.e., non-PEG oligomer-modified parent molecule), a corresponding version comprising the compound covalently attached to a water-soluble, non-peptidic oligomer (i.e., the conjugate), or control solution (IV, SC, IP or orally) thirty minutes prior to the administration of the phenylquinone (PQ) solution. Each animal was given an IP injection of an irritant (phenylquinone, PQ) that induces “writhing” which may include: contractions of the abdomen, twisting and turning of the trunk, arching of the back, and the extension of the hindlimbs. Each animal was given an IP injection of PQ (1 mg/kg PQ, 0.1 mL/10 g bodyweight). After the injection, the animals were returned to their observation enclosure and their behavior was observed. Contractions were counted between 35 and 45 minutes after the “pretreatment”. The animals were used once. Each tested article was dosed at a range between 0.1 and 100 mg/kg (n=5-10 animals/dose).

[9] = target: cloned human kappa opioid receptor (Homo sapiens (Human), UniProt P41145); type: cell-based
Experimental: as §4, §5

[10] = target: recombinant human kappa opioid receptor (Homo sapiens (Human), UniProt P41145); type: binding
Experimental: as §6, §7

[11] = inhibition of cAMP formation, 3 μM forskolin, CHO cells
[12] = male, Sprague-Dawley, rat, plasma, iv, 1 mg/kg
[13] = inhibition of cAMP formation, maximal response vs known full agonist
[14] = SPA, CHO-K1 membranes, [3H]DAMGO 6 nM
[15] = hydroxycodone series, IV 1 mg/kg, rats, Mean ± SD

Sequence of recombinant human delta opioid receptor (P41143 whole entry, looked up): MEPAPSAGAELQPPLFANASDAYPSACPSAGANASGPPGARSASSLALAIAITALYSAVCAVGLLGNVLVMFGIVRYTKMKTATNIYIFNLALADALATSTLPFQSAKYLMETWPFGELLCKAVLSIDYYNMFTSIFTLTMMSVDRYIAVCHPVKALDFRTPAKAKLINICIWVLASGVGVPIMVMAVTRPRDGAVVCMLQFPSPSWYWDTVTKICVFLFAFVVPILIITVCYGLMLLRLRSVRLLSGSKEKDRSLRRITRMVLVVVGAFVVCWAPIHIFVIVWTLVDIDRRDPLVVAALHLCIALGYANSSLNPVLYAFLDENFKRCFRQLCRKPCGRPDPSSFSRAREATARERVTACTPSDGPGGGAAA

| Molecule | EC50 [6, 11] [µM] | MU OPIOID RECEPTOR % max effect [6, 13] [%] | Ki [8, 14] [µM] | AUCall [7, 15] [ng·min/mL] | AUCinf [7, 15] [ng·min/mL] | CL [7, 15] [mL/min/kg] | Cmax [7, 15] [ng/mL] | MRTlast [7, 15] [min] | T1/2(z) [7, 15] [min] | Vss [7, 15] [L/kg] | EC50 [6] [µM] | MU OPIOID RECEPTOR % max effect [6] [%] | Ki [8] [µM] | further results |
| --- | --- | --- | --- | --- | --- | --- | --- | --- | --- | --- | --- | --- | --- | --- |
| COCCOCCOCCOCCO[C@H]1CC[C@@]2(O)[C@H]3Cc4ccc(O)c5c4[C@@]2(CCN3CC2CCC2)[C@H]1O5 [6-O-mPEG4-Nalbuphine, 6-O-mPEG4-nalbuphine] |  |  |  |  |  |  |  |  |  |  |  |  |  | Fold vs Nalbuphine At DELTA [1]: 0.47; Fold vs Nalbuphine At MU [2]: 1.23 |
| COc1ccc2c3c1O[C@H]1[C@@H](O)C=C[C@H]4[C@@H](C2)N(C)CC[C@@]341 [Codeine] |  |  |  |  |  |  |  |  |  |  |  |  |  | Tmax [3]: 15 min; AUC (in vivo [4]): 183 ng·h/mL; AUC(0-inf) (in vivo [4]): 190 ng·h/mL; Cmax (in vivo [4]): 469 ± 20.4 ng/mL; MRT last (in vivo [4]): 40.2 min; Vd (in vivo [4]): 4.14 ± 0.7 L/kg; clearance (in vivo [4]): 89.7 ± 15.3 mL/min/kg; bioavailability (in vivo [5]; oral): 0.52%; AUC (in vivo [5]; po): 5.47 ng·h/mL; AUC(0-inf) (in vivo [5]; po): 7.18 ng·h/mL; Cmax (in vivo [5]; po): 6.24 ± 2.51 ng/mL; MRT last (in vivo [5]; po): 33.2 min |
| COc1ccc2c3c1O[C@H]1C(O)CC[C@@]4(O)[C@@H](C2)N(C)CC[C@]314 (stereo partly drawn) [Hydroxycodone, α-6-hydroxycodone, reference compound] | 3.16 |  |  |  |  |  |  |  |  |  |  |  |  |  |
| COc1ccc2c3c1O[C@H]1C(=O)CC[C@@]4(O)[C@@H](C2)N(C)CC[C@]314 [Oxycodone, reference compound] |  |  |  |  |  |  |  |  |  |  |  |  |  | AUC [3]: 75.3 ng·h/mL; Cmax [3]: 25.5 ± 1.86 ng/mL; MRT last [3]: 179 min; Tmax [3]: 15 min; AUC [7, 12]: 213 ng·h/mL; AUC(0-inf) [7, 12]: 217 ng·h/mL; Cmax [7, 12]: 495 ± 56 ng/mL; MRT last [7, 12]: 37 min; clearance [7, 12]: 77.1 ± 6.26 mL/min/kg; half-life [7, 12]: 47 ± 3.99 min; Emax ([6]; CHO, read-out: MU OPIOID RECEPTOR % max effect): 95% |
| COCCO[C@H]1CC[C@@]2(O)[C@H]3Cc4ccc(OC)c5c4[C@@]2(CCN3C)[C@H]1O5 [α-6-mPEG1-O-Hydroxycodone, α-6-mPEG1-O-hydroxycodone] | 3.84 | 102 | 0.654 |  |  |  |  |  |  |  |  |  |  | ED50 (mPEGn-O-HydroxyCodone series) (CD-1 male mice): 6.064 mg/kg |
| COCCOCCO[C@H]1CC[C@@]2(O)[C@H]3Cc4ccc(OC)c5c4[C@@]2(CCN3C)[C@H]1O5 [α-6-mPEG2-O-Hydroxycodone, α-6-mPEG2-O-hydroxycodone] | 5 | 101 | 0.632 | 12000 ± 1610 | 12200 ± 1650 | 83.3 ± 10.8 | 513 ± 48.8 | 37.0 ± 2.60 | 44.6 ± 1.80 | 3.36 ± 0.298 |  |  |  |  |
| COCCOCCOCCO[C@H]1CC[C@@]2(O)[C@H]3Cc4ccc(OC)c5c4[C@@]2(CCN3C)[C@H]1O5 [α-6-mPEG3-O-Hydroxycodone, α-6-mPEG3-O-hydroxycodone] | 2.83 | 108 | 0.775 | 13800 ± 1050 |  | 71.7 ± 4.99 | 746 ± 2.08 | 32.5 ± 1.92 | 48.5 ± 7.83 | 2.62 ± 0.206 |  |  |  |  |
| COCCOCCOCCOCCO[C@H]1CC[C@@]2(O)[C@H]3Cc4ccc(OC)c5c4[C@@]2(CCN3C)[C@H]1O5 [α-6-mPEG4-O-Hydroxycodone, α-6-mPEG4-O-hydroxycodone] |  |  |  |  | 11600 ± 827 | 86.5 ± 6.36 | 537 ± 31.0 | 35.6 ± 2.88 | 43.6 ± 3.27 | 3.34 ± 0.113 | 3.71 | 109 | 0.893 | ED50 (mPEGn-O-HydroxyCodone series) (CD-1 male mice): 17.31 mg/kg |
| COCCOCCOCCOCCOCCO[C@H]1CC[C@@]2(O)[C@H]3Cc4ccc(OC)c5c4[C@@]2(CCN3C)[C@H]1O5 [α-6-mPEG5-O-Hydroxycodone, α-6-mPEG5-O-hydroxycodone] | 5.04 | 108 | 1.86 | 16900 ± 1800 | 17700 ± 1990 | 57.0 ± 6.07 |  | 46.2 ± 1.86 | 62.1 ± 3.85 | 3.30 ± 0.184 |  |  |  |  |
| COCCOCCOCCOCCOCCOCCO[C@H]1CC[C@@]2(O)[C@H]3Cc4ccc(OC)c5c4[C@@]2(CCN3C)[C@H]1O5 [α-6-mPEG6-O-Hydroxycodone, α-6-mPEG6-O-hydroxycodone] | 12.5 | 102 | 1.9 | 12600 ± 2370 | 13100 ± 2390 | 77.9 ± 14.4 | 445 ± 83.6 | 47.7 ± 1.41 | 62.2 ± 5.17 | 4.68 ± 0.938 |  |  |  |  |
| COCCOCCOCCOCCOCCOCCOCCO[C@H]1CC[C@@]2(O)[C@H]3Cc4ccc(OC)c5c4[C@@]2(CCN3C)[C@H]1O5 [α-6-mPEG7-O-Hydroxycodone, α-6-mPEG7-O-oxycodone] | 7.45 | 101 | 1.61 | 14300 ± 583 | 15800 ± 728 | 63.3 ± 2.99 | 489 ± 26.5 | 54.3 ± 0.372 | 87.0 ± 3.25 | 5.31 ± 0.139 |  |  |  |  |
| COCCOCCOCCOCCOCCOCCOCCOCCOCCO[C@H]1CC[C@@]2(O)[C@H]3Cc4ccc(OC)c5c4[C@@]2(CCN3C)[C@H]1O5 [α-6-mPEG9-O-Hydroxycodone, α-6-mPEG9-O-hydroxycodone] |  |  |  | 16600 ± 2190 | 21000 ± 4230 | 48.9 ± 9.41 | 955 ± 149 | 52.7 ± 4.04 |  | 6.35 ± 0.349 |  |  |  | mean t1/2 value as multiple of that of the parent molecule ([7]; IV 1 mg/kg, rats): 3 times |
| α-6-mPEG1-O-codeine |  |  |  |  |  |  |  |  |  |  | 8.57 | 80 | 1.82 | KAPPA OPIOID RECEPTOR % max effect [9]: 51%; Ki [10]: 54.7 µM |
| α-6-mPEG2-O-codeine |  |  |  |  |  |  |  |  |  |  | 5.15 | 75 | 1.38 | EC50 [9]: 40.1 µM; KAPPA OPIOID RECEPTOR % max effect [9]: 59%; Ki [10]: 22.6 µM |
| α-6-mPEG4-O-codeine |  |  |  |  |  |  |  |  |  |  | 22.1 | 99 | 2.89 | Ki [10]: 97 µM |
| α-6-mPEG5-O-codeine |  |  |  |  |  |  |  |  |  |  |  |  |  | KAPPA OPIOID RECEPTOR % max effect [9]: 60%; Ki [10]: 59.1 µM |
| α-6-mPEG6-O-codeine |  |  |  |  |  |  |  |  |  |  | 97.4 | 80 | 14.2 | KAPPA OPIOID RECEPTOR % max effect [9]: 21%; Ki [10]: > 160 µM |
| α-6-mPEG7-O-codeine |  |  |  |  |  |  |  |  |  |  | 44.7 | 75 | 9.96 |  |
| α-6-mPEG9-O-codeine |  |  |  |  |  |  |  |  |  |  | 48.2 | 80 | 9.98 |  |
